Measurements published in publication PMC7143835, “Anti-Hyperglycemic Effects of Green Crab Hydrolysates Derived by Commercially Available Enzymes” (Foods, 2020).
Values after ≈ are worked out from the molar mass of the structure shown.

Molecular target: T1, rat intestinal α-glucosidase
T1 construct: gene Si; crude buffer extract of rat intestinal acetone powder; mixture of brush-border alpha-glucosidases
Test: p-nitrophenyl glucopyranoside hydrolysis, absorbance at […] nm
Assay type: biochemical
Settings: 5 mM p-NPG stock (printed as beta anomer; 50 µL in 200 µL assay), 0.1 M sodium phosphate pH 6.9, 0.9% NaCl, 37 °C, 10 min preincubation; positive control; crude extract

IC50: 27 µg/mL (≈ 41.8 µM)
SMILES: C[C@H]1O[C@H](O[C@H]2[C@H](O)[C@@H](O)[C@@H](O[C@H]3[C@H](O)[C@@H](O)C(O)O[C@@H]3CO)O[C@@H]2CO)[C@H](O)[C@@H](O)[C@@H]1N[C@H]1C=C(CO)[C@@H](O)[C@H](O)[C@H]1O (stereo partly shown) [acarbose]
